Measurements from PMC6520840, “Antimicrobial and Antibiofilm Effects of Peptides from Venom of Social Wasp and Scorpion on Multidrug-Resistant Acinetobacter baumannii” (Toxins, 2019).
No end group written: not given here.

Experiments:
[1] = tested on: S. epidermidis biofilm; format: cell-based, Staphylococcus epidermidis; details: peptide at 12.5 μM, crystal violet
Experimental: (§1) To determine the formation of the biofilm of Staphylococcus spp., the methodology according to Kwasny and Opperman (2010) with modifications was used. Staphylococcus epidermidis and methicillin-resistant Staphylococcus aureus (MRSA) cryopreserved strains at −80 °C were reactivated in solid medium to obtain an isolated colony, which was inoculated in LB medium broth and cultured at 37 °C until they reached a concentration corresponding to 0.5 turbidity of the MacFarland scale. At that concentration, 30 μL of the bacterial culture was added to wells containing 170 μL of tryptic soy broth (HiMedia) broth with 1% glucose. The plate was incubated at 37 °C for 24 h. After this period the bacterial growth was quantified by optical density reading at 600 nm and the formation of the biofilm was determined by the colorimetric method similar to that used for Acinetobacter. The biofilm inhibition test also followed the standard for the previous tests, with modifications in the culture medium used to increase the bacterial biofilm production by Staphylococcus strains.

[2] = tested on: A. baumannii isolate AB 53; experiment: Minimum inhibitory concentration (MIC), broth microdilution; format: cell-based, Acinetobacter baumannii; details: peptides 25 to 1.56 μM, 24 h at 37 °C, OD 405 nm, triplicates
[3] = tested on: A. baumannii isolate AB 02 biofilm; experiment: Inhibition of biofilm formation on polystyrene plates (MBEC), crystal violet; format: cell-based, Acinetobacter baumannii; details: for Minimal inhibitory concentration against the formation of A. baumannii biofilm (MBEC): Isolate AB 02, polystyrene plate, LB 1/4 + 0.2% glucose, 29 °C, 24 h, crystal violet, OD 595 nm, peptides 25 to 1.56 μM
Experimental: […] [71] methodology with minor modifications. Initially, A. baumannii strains (AB 02, AB 53, and AB 72) were grown for 6 h in LB broth until reaching an optimum growth of 1.0 in the optical density of 600 nm and then the culture concentration was adjusted to 1.5 × 10^8 CFU/mL and 30 μL of the culture was added to the wells containing 170 μL de LB ¼ + 0.2% glucose containing serially diluted peptides ranging from 25 to 1.56 μM. Cells were incubated at 29 °C for 24 h to let biofilms be formed. The supernatant was removed and the wells were washed with 200 μL of PBS twice to remove the non-adherent and weakly adherent cells, maintaining only the mature biofilm formed on the plate. Biofilm quantification was measured by staining attached cells with 0.2% (w/v) violet crystal staining solubilized with ethanol/acetone (80/20 v/v) and quantified at 595 nm. The biofilms formed in cultures with different peptide concentrations were compared with the biofilms formed in cultures of A. baumannii strains without peptides. Analyses were performed in triplicate and three independent experiments were performed for each of these assays.

[4] = tested on: methicillin-resistant S. aureus (MRSA) biofilm; format: cell-based, Staphylococcus aureus; details: peptide at 12.5 μM, crystal violet
Experimental: as §1

[5] = tested on: A. baumannii isolate AB 53 biofilm; experiment: Inhibition of biofilm formation on polystyrene plates (MBEC), crystal violet; format: cell-based, Acinetobacter baumannii; details: for Minimal inhibitory concentration against the formation of A. baumannii biofilm (MBEC): Isolate AB 53, polystyrene plate, LB 1/4 + 0.2% glucose, 29 °C, 24 h, crystal violet, OD 595 nm, peptides 25 to 1.56 μM
Experimental: (§2) In order to determine if individual peptides could avoid biofilm formation, the minimal biofilm eradication concentration (MBEC) determination assay was performed using 96-well […] plates according to Feng et al. methodology with minor modifications. Initially, A. baumannii strains (AB 02, AB 53, and AB 72) were grown for 6 h in LB broth until reaching an optimum growth of 1.0 in the optical density of 600 nm and then the culture concentration was adjusted to 1.5 × 10^8 CFU/mL and 30 μL of the culture was added to the wells containing 170 μL de LB ¼ + 0.2% glucose containing serially diluted peptides ranging from 25 to 1.56 μM. Cells were incubated at 29 °C for 24 h to let biofilms be formed. The supernatant was removed and the wells were washed with 200 μL of PBS twice to remove the non-adherent and weakly adherent cells, maintaining only the mature biofilm formed on the plate. Biofilm quantification was measured by staining attached cells with 0.2% (w/v) violet crystal staining solubilized with ethanol/acetone (80/20 v/v) and quantified at 595 nm. The biofilms formed in cultures with different peptide concentrations were compared with the biofilms formed in cultures of A. baumannii strains without peptides. Analyses were performed in triplicate and three independent experiments were performed for each of these assays.

[6] = tested on: A. baumannii isolate AB 72 biofilm; experiment: as above; format: cell-based, Acinetobacter baumannii; details: for Minimal inhibitory concentration against the formation of A. baumannii biofilm (MBEC): Isolate AB 72, polystyrene plate, LB 1/4 + 0.2% glucose, 29 °C, 24 h, crystal violet, OD 595 nm, peptides 25 to 1.56 μM
Experimental: as §2

[7] = tested on: A. baumannii isolate AB 02; experiment: Minimum inhibitory concentration (MIC), broth microdilution; format: cell-based, Acinetobacter baumannii; details: peptides 25 to 1.56 μM, 24 h at 37 °C, OD 405 nm, triplicates
Experimental: (§3) The minimum inhibitory concentration was determined by broth microdilution according to Wiegand et al.. The AB 02, […] and AB 72 isolates were grown in LB broth medium for 8 h at 37 °C until they reached a growth turbidity corresponding to 0.5 of the McFarland scale. Thirty microliters of each culture were added in the wells of polystyrene plates containing 170 µL of culture medium with different concentrations of the antimicrobial peptides. Agelaia-MPI, Polybia-MPII, Polydim-I, Con10 and NDBP 5.8 antimicrobial peptides were serially diluted from 25 to 1.56 μM. The plate containing different concentrations of individual peptides with the bacterial strains were incubated for 24 h at 37 °C, after which time the plates were read at the optical density of 405 nm. As positive control, bacterial strains without peptides were grown in the same conditions, and as negative control medium alone was used.

[8] = tested on: A. baumannii isolate AB 72; experiment: as above; format: cell-based, Acinetobacter baumannii; details: peptides 25 to 1.56 μM, 24 h at 37 °C, OD 405 nm, triplicates
Experimental: as §3

[9] = tested on: A. baumannii isolate AB 02; details: cited from earlier work
Experimental: (§4) In this work, three A. baumannii isolates previously described by Castilho et al. that were isolated from patients with hospital-acquired infections were used. Isolates AB 02 and AB 72 were resistant to ampicillin, amikacin, and ciprofloxacin. AB 53 isolate only presented resistance to ampicillin. […] Thus, AB 02 and AB 72 were considered as MDR strains. The ability to form biofilms by A. baumannii isolates AB 02, AB 53 and AB 72 was determined by crystal violet staining ...

[10] = tested on: A. baumannii isolate AB 72; details: cited from earlier work
Experimental: as §4

[11] = tested on: A. baumannii isolate AB 53; details: cited from earlier work
Experimental: as §4

**Q.** Which “Inhibition of biofilm formation” value [1] does the source give for INWLKLGKMVIDAL-NH2 [Polybia-MPII] here?
**A.** Its value is 85%.

**Q.** And the MIC [2]?
**A.** The MIC was 6.25 µM.

**Q.** What about the “Minimal inhibitory concentration against the formation of A. baumannii biofilm (MBEC)” value (“Minimal inhibitory concentration” for short) [3] of the same compound?
**A.** The value was 25 µM.

**Q.** And the “Inhibition of biofilm formation” value [4]?
**A.** The value was 85%.

**Q.** What about the “Minimal inhibitory concentration” value [5] of the same compound?
**A.** Its value is 12.5 µM.

**Q.** What about the “Minimal inhibitory concentration” value [6] of the same compound?
**A.** Its value is 25 µM.

**Q.** What about the MIC [7] of the same compound?
**A.** Its MIC is 12.5 µM.

**Q.** What about the MIC [8] of the same compound?
**A.** The MIC was 6.25 µM.

**Q.** Which results are given for AVAGEKLWLLPHLLKMLLTPTP-NH2 [Polydim-I]?
**A.** Minimal inhibitory concentration against the formation of A. baumannii biofilm (MBEC) [3]: >25 µM; Minimal inhibitory concentration against the formation of A. baumannii biofilm (MBEC) [5]: >25 µM; Minimal inhibitory concentration against the formation of A. baumannii biofilm (MBEC) [6]: >25 µM

**Q.** What does the source list for `NCC[C@H](O)C(=O)N[C@@H]1C[C@H](N)[C@@H](O[C@H]2O[C@H](CN)[C@@H](O)[C@H](O)[C@H]2O)[C@H](O)[C@H]1O[C@H]1O[C@H](CO)[C@@H](O)[C@H](N)[C@H]1O` [amikacin]?
**A.** Antibiotic susceptibility category [9]: resistant; Antibiotic susceptibility category [10]: resistant

**Q.** With `O=C(O)c1cn(C2CC2)c2cc(N3CCNCC3)c(F)cc2c1=O` [ciprofloxacin] as the compound, how does the Antibiotic susceptibility category [9] read?
**A.** Its Antibiotic susceptibility category is “resistant”.

**Q.** And the Antibiotic susceptibility category [10]?
**A.** Its Antibiotic susceptibility category is “resistant”.

**Q.** Which Antibiotic susceptibility category [9] does the source give for `CN(C)[C@@H]1C(O)=C(C(N)=O)C(=O)[C@@]2(O)C(O)=C3C(=O)c4c(O)cccc4[C@@](C)(O)[C@H]3C[C@@H]12` [tetracycline] here?
**A.** Its Antibiotic susceptibility category is “intermediate susceptibility”.

**Q.** And the Antibiotic susceptibility category [11]?
**A.** Its Antibiotic susceptibility category is “intermediate susceptibility”.

**Q.** What about the Antibiotic susceptibility category [10] of the same compound?
**A.** The Antibiotic susceptibility category was “intermediate susceptibility”.

**Q.** With GILGKIWEGVKSLI-NH2 [NDBP-5.8] as the compound, how does the MIC [2] read?
**A.** Its MIC is 25 µM.

**Q.** What about the “Minimal inhibitory concentration” value [3] of the same compound?
**A.** Its value is greater than 25 µM.

**Q.** What about the “Minimal inhibitory concentration” value ([3]; listed as NBDP 5.8) of the same compound?
**A.** Its value is 25 µM.

**Q.** What about the “Inhibition of the biofilm” value ([3]; isolate AB 02, peptide at 25 μM) of the same compound?
**A.** Its value is greater than 95%.

**Q.** What about the “Minimal inhibitory concentration” value [5] of the same compound?
**A.** The value was greater than 25 µM.

**Q.** What about the “Minimal inhibitory concentration” value ([5]; listed as NBDP 5.8) of the same compound?
**A.** Its value is 25 µM.

**Q.** And the “Inhibition of the biofilm” value ([5]; isolate AB 53, peptide at 25 μM)?
**A.** The value was greater than 95%.

**Q.** And the “Minimal inhibitory concentration” value [6]?
**A.** Its value is greater than 25 µM.

**Q.** What about the “Minimal inhibitory concentration” value ([6]; listed as NBDP 5.8) of the same compound?
**A.** The value was 25 µM.

**Q.** What about the “Inhibition of the biofilm” value ([6]; isolate AB 72, peptide at 25 μM) of the same compound?
**A.** The value was greater than 95%.

**Q.** What about the MIC [7] of the same compound?
**A.** The MIC was 25 µM.

**Q.** What about the MIC [8] of the same compound?
**A.** The MIC was 25 µM.

**Q.** With `CC1(C)S[C@@H]2[C@H](NC(=O)[C@H](N)c3ccccc3)C(=O)N2[C@H]1C(=O)O` [ampicillin] as the compound, how does the Antibiotic susceptibility category [9] read?
**A.** The Antibiotic susceptibility category was “resistant”.

**Q.** What about the Antibiotic susceptibility category [11] of the same compound?
**A.** Its Antibiotic susceptibility category is “resistance”.

**Q.** And the Antibiotic susceptibility category [10]?
**A.** Its Antibiotic susceptibility category is “resistant”.

**Q.** With FWSFLVKAASKILPSLIGGGDDNKSSS-NH2 [Con10] as the compound, how does the MIC [2] read?
**A.** Its MIC is 6.25 µM.

**Q.** What about the “Minimal inhibitory concentration” value [3] of the same compound?
**A.** Its value is 25 µM.

**Q.** What about the “Minimal inhibitory concentration” value [5] of the same compound?
**A.** The value was 12.5 µM.

**Q.** And the “Minimal inhibitory concentration” value [6]?
**A.** Its value is 12.5 µM.

**Q.** What about the MIC [7] of the same compound?
**A.** Its MIC is 12.5 µM.

**Q.** And the MIC [8]?
**A.** The MIC was 6.25 µM.

**Q.** With INWLKLGKAIIDAL-NH2 [Agelaia-MPI] as the compound, how does the “Inhibition of biofilm formation” value [1] read?
**A.** Its value is 85%.

**Q.** And the MIC [2]?
**A.** Its MIC is 3.12 µM.

**Q.** And the “Minimal inhibitory concentration” value [3]?
**A.** Its value is 25 µM.

**Q.** What about the “Inhibition of biofilm formation” value [4] of the same compound?
**A.** Its value is 85%.

**Q.** What about the “Minimal inhibitory concentration” value [5] of the same compound?
**A.** Its value is 6.25 µM.

**Q.** And the “Minimal inhibitory concentration” value [6]?
**A.** The value was 12.5 µM.

**Q.** What about the MIC [7] of the same compound?
**A.** The MIC was 6.25 µM.

**Q.** For `C[C@@H](O)[C@H]1C(=O)N2C(C(=O)O)=C(S[C@@H]3CN[C@H](C(=O)N(C)C)C3)[C@H](C)[C@H]12` [meropenem], which Antibiotic susceptibility category [11] is on record?
**A.** Its Antibiotic susceptibility category is “susceptible”.

**Q.** And the Antibiotic susceptibility category [10]?
**A.** The Antibiotic susceptibility category was “susceptible”.
